Experimental data taken from article PMC7604503, “Cyclic peptides can engage a single binding pocket through highly divergent modes” (Proceedings of the National Academy of Sciences of the …, 2020).
Where a SMILES comes first, the peptide text is derived from it. Bridges are numbered along the chain shown (N, C = ends).

How the values were obtained:
Test in all cases: BROMOscan competition binding assay (BromoMAX, Eurofins DiscoverX)
ATAD2A = biological target: T1, ATAD2A (Homo sapiens, UniProt Q6PL18); settings: for Percent Control ATAD2A: compound concentration 1000 nM, lower percentage control = stronger affinity
T1 construct: purchased Eurofins DiscoverX (BROMOscan, BromoMAX)
T1 sequence (Q6PL18 1-1390): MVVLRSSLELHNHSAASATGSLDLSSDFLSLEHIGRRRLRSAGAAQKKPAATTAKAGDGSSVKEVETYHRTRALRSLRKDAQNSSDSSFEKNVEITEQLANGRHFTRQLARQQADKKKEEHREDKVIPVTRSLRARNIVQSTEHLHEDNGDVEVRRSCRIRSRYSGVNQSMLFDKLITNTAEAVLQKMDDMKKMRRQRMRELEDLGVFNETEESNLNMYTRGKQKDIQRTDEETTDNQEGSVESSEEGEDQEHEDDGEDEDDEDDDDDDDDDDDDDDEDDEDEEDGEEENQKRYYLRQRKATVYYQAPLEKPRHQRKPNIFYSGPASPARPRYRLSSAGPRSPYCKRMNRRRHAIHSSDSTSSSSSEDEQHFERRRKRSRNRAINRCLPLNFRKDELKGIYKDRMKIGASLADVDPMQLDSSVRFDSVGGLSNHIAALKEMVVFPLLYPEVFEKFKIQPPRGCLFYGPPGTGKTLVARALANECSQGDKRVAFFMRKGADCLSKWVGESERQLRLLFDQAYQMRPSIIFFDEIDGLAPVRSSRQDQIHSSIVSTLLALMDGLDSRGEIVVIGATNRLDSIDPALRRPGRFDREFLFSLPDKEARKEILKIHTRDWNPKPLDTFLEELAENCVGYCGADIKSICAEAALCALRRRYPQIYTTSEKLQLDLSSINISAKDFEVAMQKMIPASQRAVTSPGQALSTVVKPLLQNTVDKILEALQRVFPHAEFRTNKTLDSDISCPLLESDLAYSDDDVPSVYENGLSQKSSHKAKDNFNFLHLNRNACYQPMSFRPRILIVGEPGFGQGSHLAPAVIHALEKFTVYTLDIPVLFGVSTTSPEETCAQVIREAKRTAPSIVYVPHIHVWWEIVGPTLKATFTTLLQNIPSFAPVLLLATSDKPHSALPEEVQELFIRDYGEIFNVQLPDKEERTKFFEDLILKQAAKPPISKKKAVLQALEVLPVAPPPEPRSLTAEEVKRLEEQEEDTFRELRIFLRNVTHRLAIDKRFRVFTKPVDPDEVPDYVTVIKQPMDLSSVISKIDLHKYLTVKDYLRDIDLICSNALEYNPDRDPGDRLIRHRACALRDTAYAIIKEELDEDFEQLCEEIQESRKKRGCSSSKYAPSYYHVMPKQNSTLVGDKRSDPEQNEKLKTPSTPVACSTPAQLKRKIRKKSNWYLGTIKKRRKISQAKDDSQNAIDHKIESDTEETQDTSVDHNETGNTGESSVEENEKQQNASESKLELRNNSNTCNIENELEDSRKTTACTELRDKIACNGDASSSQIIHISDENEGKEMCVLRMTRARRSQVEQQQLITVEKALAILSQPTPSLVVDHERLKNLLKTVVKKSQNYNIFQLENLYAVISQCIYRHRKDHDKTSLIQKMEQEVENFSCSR

BRD3(2) = biological target: T2, BRD3(2) (Homo sapiens, UniProt Q15059); settings: for Percent Control BRD3(2): compound concentration 1000 nM, lower percentage control = stronger affinity
T2 construct: BRD3(2); purchased Eurofins DiscoverX (BROMOscan, BromoMAX)

ATAD2B = biological target: T3, ATAD2B (Homo sapiens, UniProt Q9ULI0); settings: for Percent Control ATAD2B: compound concentration 1000 nM, lower percentage control = stronger affinity
T3 construct: purchased Eurofins DiscoverX (BROMOscan, BromoMAX)
T3 sequence (Q9ULI0 1-1458): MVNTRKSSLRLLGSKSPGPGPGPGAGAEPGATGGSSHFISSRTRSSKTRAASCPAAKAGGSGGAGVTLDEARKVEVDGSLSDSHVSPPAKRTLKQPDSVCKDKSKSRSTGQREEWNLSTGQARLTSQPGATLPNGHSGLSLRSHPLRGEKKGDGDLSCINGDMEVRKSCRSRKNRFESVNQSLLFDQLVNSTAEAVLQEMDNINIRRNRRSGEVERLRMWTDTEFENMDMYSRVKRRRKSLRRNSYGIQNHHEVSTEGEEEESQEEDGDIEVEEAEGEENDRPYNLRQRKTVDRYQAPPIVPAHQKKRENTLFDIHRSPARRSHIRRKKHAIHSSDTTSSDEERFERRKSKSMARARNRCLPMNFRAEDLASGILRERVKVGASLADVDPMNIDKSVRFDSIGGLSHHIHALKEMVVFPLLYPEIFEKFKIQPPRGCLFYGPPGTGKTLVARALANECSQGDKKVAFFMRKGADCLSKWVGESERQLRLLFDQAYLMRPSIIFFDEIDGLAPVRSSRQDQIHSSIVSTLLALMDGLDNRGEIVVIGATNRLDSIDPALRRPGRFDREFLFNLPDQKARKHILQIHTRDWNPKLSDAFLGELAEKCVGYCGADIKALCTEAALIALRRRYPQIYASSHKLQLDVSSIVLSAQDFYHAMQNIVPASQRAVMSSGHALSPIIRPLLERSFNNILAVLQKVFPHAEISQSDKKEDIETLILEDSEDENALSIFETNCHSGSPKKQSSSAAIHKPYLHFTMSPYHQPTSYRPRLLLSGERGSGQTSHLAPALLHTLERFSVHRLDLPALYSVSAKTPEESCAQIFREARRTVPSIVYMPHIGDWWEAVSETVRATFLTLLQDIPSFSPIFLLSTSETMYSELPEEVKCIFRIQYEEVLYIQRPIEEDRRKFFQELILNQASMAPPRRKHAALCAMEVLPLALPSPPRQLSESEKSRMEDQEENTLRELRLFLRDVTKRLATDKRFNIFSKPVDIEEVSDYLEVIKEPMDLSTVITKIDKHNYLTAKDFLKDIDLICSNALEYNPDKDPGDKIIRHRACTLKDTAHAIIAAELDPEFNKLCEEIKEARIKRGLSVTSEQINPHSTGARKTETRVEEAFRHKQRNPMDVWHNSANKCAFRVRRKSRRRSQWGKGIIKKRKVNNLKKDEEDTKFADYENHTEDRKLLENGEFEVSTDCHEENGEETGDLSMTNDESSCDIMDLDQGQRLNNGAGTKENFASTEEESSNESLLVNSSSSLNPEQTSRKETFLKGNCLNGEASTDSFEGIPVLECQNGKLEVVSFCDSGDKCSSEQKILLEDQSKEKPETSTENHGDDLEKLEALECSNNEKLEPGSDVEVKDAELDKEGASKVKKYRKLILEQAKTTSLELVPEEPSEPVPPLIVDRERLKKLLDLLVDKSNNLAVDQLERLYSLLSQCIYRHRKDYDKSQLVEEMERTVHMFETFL

T2 sequence (Q15059 306-416 limits assumed): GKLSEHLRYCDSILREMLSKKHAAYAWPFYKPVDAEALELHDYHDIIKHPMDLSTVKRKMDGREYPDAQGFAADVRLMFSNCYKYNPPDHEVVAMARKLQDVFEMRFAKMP

| SMILES | Percent Control ATAD2A (ATAD2A) [%] | Percent Control BRD3(2) (BRD3(2)) [%] | Percent Control ATAD2B (ATAD2B) [%] | percent of control binding at 1 µM (ATAD2A) [%] | remaining binding at 1 µM (BRD3(2); read-out: Percent Control BRD3(2)) [%] | percent of control binding at 1 µM (ATAD2B) [%] |
| --- | --- | --- | --- | --- | --- | --- |
| CC[C@H](C)[C@@H]1NC(=O)[C@H]([C@@H](C)O)NC(=O)[C@H](CCCCN)NC(=O)[C@H](Cc2c[nH]c3ccccc23)NC(=O)CSC[C@@H](C(N)=O)NC(=O)[C@H](CCC(N)=O)NC(=O)[C@H](CCCCNC(C)=O)NC(=O)[C@H]([C@@H](C)O)NC(=O)[C@H](CCCNC(=N)N)NC(=O)[C@H](Cc2c[nH]c3ccccc23)NC(=O)[C@H]([C@@H](C)O)NC(=O)[C@H](CCCCNC(C)=O)NC(=O)CNC(=O)[C@H](CCCCNC(C)=O)NC1=O [3.1B] ({CH2CO}-WKTIK(Ac)GK(Ac)TWRTK(Ac)QC-NH2; thioether N-14) | 92 | 100 | 100 | – | – | – |
| CC[C@H](C)[C@@H]1NC(=O)[C@H](Cc2c[nH]c3ccccc23)NC(=O)[C@H](Cc2c[nH]c3ccccc23)NC(=O)CSC[C@@H](C(N)=O)NC(=O)CNC(=O)[C@H](CCCCNC(C)=O)NC(=O)[C@H](CCCCN)NC(=O)[C@H](C(C)C)NC(=O)[C@H](CCCCNC(C)=O)NC(=O)[C@@H]2CCCN2C(=O)[C@H]([C@@H](C)CC)NC1=O [3.1C] ({CH2CO}-WWIIPK(Ac)VKK(Ac)GC-NH2; thioether N-11) | 92 | 13 | 100 | – | – | – |
| CC[C@H](C)[C@H](NC(=O)[C@H](CCCNC(=N)N)NC(=O)[C@H](CCCCNC(C)=O)NC(=O)[C@H](CCCNC(=N)N)NC(=O)[C@H](CC(C)C)NC(=O)[C@@H]1CSCC(=O)N[C@@H](Cc2c[nH]c3ccccc23)C(=O)N[C@@H](CCCCNC(C)=O)C(=O)NCC(=O)N[C@@H](Cc2ccc(O)cc2)C(=O)N[C@@H](CC(C)C)C(=O)N1)C(=O)N[C@@H](CCC(N)=O)C(=O)N[C@@H](CCCNC(=N)N)C(=O)N[C@H](C(=O)N[C@@H](Cc1ccc(O)cc1)C(=O)N[C@@H](CC(N)=O)C(N)=O)[C@@H](C)O [4.2C] ({CH2CO}-WK(Ac)GYLCLRK(Ac)RIQRTYN-NH2; thioether N-6) | – | – | – | 85 | 96 | 100 |
